{"source": "patent US8017135B1", "about": "“Lipid-drug conjugates for local therapy of eye diseases” (The Regents of the University of California, priority 2003, dated 2011)", "key": {"[1]": {"conditions": "literature comparison; cited from earlier work"}, "HSV-1 [2]": {"tested_on": "HSV-1", "assay": "HSV-1 rabbit retinitis pretreatment study", "format": "in vivo", "conditions": "for rabbits that developed retinitis: 3-week pretreatment, 100 μg/eye or equivalent dose", "protocol": "(§1) For the pharmacokinetic studies, the highest non toxic dose from the results of the toxicity studies, 100 μg/eye, was intravitreally injected into 24 eyes of 16 rabbits, and the remaining 8 eyes were injected with the same volume of 5% dextrose as control. Two animals, 3 eyes with drug and 1 eye with 5% dextrose, were used at each time point. The time points used were post-injections on day 1, day 3, week 1, week 2, week 3, week 5, week 8, and week 10. After animal sacrifice, globes were enucleated and kept on ice before freezing and dissecting. The globes were then submerged in −40 C.° 2-methylbutane in a beaker sitting in a dry ice ethanol bath for 30 seconds. The frozen globe was cut into two halves through the optic nerve and further dissected under a surgical microscope to separate the vitreous and retina. These different tissues from the same eyes were separately stored in the pre-weighed and pre-labeled glass vials. The vials were kept in −70 C for HPLC analysis. 3. HSV-1 rabbit retinitis treatment study of HDP-cCDV: For the retinitis intervention study, 72 rabbits were used, including 14 rabbits for the treatment study and 58 for the pretreatment study. Only the right eye of each rabbit was used. Ophthalmoscopic retinitis grading was performed using a previously reported method with a standardized grading scheme.^7 For the treatment study, the right eyes of 14 rabbits were intravitreally injected with 0.06 mL of a 5×10^−5 dilution of 10^−7.6 mean tissue culture infective dose (TCID 50)/mL HSV-1. When retinitis developed and reached grade 1 (earliest detected retinitis grade: 1 or 2), 5 infected eyes received 100 micrograms of HDP-cCDV in 0.1 mL 5% dextrose, 4 infected eyes received an equivalent dose of free CDV, and the other 5 infected eyes received 5% dextrose. For the pretreatment study, 100 μg/eye was tested. 58 rabbits were divided into four groups: the 21 day, 42 day, 68 day, and 98 day groups. 15 rabbits were used for each time point of the pretreatment study (except 13 rabbits were used for the 98 day time point). At each time point 5 rabbits received 100 micrograms (in 0.1 ml 5% dextrose) of HDP-cCDV, 5 rabbits received an equivalent dose of CDV, and 5 rabbits received 5% dextrose (for the 98 day pre-treatment only 3 rabbits were used for HDP-cCDV). The HSV-1 virus dose, injection method, and clinical retinitis grading were done as previously described.^2,7 Rabbits were killed 2 weeks after development of retinitis. Retinitis was graded on day 3, 5, 7, 9, 11, 14. Rabbits without retinitis 3 or 4 weeks after HSV-1 inoculation were sacrificed.\nFor the 3-week pretreatment study, all five rabbits that received intravitreal injection of 5% dextrose developed typical retinitis. In contrast, none of the rabbits that received the intravitreal injection of HDP-cCDV or CDV developed retinitis (Table 1). For the 47-day pretreatment, at day 7 after virus inoculation all control eyes developed retinitis with a median grade of 4. […] In contrast, out of 5 rabbits that received HDP-cCDV pretreatment, only 2 developed grade 2 retinitis. There is a significant difference in retinitis scores between HDP-cCDV pretreated eyes and CDV pretreated eyes or control eyes (p<0.05, Nonparametric Tukey-type tests). […] The other two groups (10 eyes) with dextrose or CDV pretreatment all had grade 4 retinitis. The difference in retinitis scores among the three groups was very significant (P=0.0046, Kruskal-Wallis Tests) (Table 1). For the 100-day pretreatment study, one of four rabbits in the HDP-cCDV pretreated group died before virus inoculation. […] The HDP-cCDV pretreated group had lower retinitis scores than the retinitis scores in the dextrose pretreated group (P<0.05, Nonparametric Tukey-type tests)."}, "HSV-1 [3]": {"tested_on": "HSV-1", "assay": "HSV-1 rabbit retinitis treatment study", "format": "in vivo", "conditions": "intravitreal drug after induction of retinitis; for thickness of the retina (histology): 5% dextrose eyes 46 μm, P<0.05", "protocol": "as §1\n4. Histologic evaluation of retinal damage and choroidal inflammation for the rabbit eyes in the treatment group. […] Thickness was measured with a reticule installed in the eyepiece of the microscope. […]"}, "HSV-1 [4]": {"tested_on": "HSV-1", "conditions": "single intravitreal injection; cited from earlier work"}, "[5]": {"assay": "HDP-P-Ara G intravitreal toxicity"}, "laser induced rat CNV": {"tested_on": "laser induced rat CNV", "assay": "Prophylactic treatment of laser induced rat CNV (fluorescein angiograph)", "format": "in vivo", "from_the_text": "The retina was normal elsewhere.\nAra-G has been used as an antiproliferative agent to treat human leukemia and lymphoma.^11,12 Ara-G can cause apoptosis of fast growing cells by incorporating into the cell's DNA to inhibit the proliferation.^13 Normal cells in the retina are differentiated cell populations and are not sensitive to Ara-G. In contrast, abnormal proliferating cells in proliferative vitreoretinopathy experience vigorous DNA synthesis and are sensitive to Ara-G. The lipid prodrug of Ara-G was chosen to be useful to treat proliferative vitreoretinopathy or other intraocular proliferating disorders. […] No intraocular drug toxicity was observed except for the local retina contact induced retinal toxicity from the high dose injections. It was hypothesized that the local retinal toxicity could be eliminated by using small crystalline particles, especially when used in a human eye with a much larger vitreous volume than rabbit (4 ml in human eye versus 1.4 ml in rabbit eye). To quickly gather the therapeutic data of this new compound on proliferation, 3 μg of HDP-P-Ara G (equivalent to 75 μg in the rabbit eye [(25+125)/2]) was injected into the right eye of each rat 3 days before induction of CNV by laser. The drug led to a 39% reduction of leaking laser burns in this CNV rat model (39% versus 66%, p=0.009). […] HDP-P-Ara G could be useful for prevention or treatment of the devastating sight-threatening eye disease, age related macular degeneration."}, "[6]": {"conditions": "previously determined; cited from earlier work"}, "[7]": {"conditions": "rabbit, in vivo, 100 ug", "protocol": "For the pharmacokinetic studies, the highest non toxic dose from the results of the toxicity studies, 100 μg/eye, was intravitreally injected into 24 eyes of 16 rabbits, and the remaining 8 eyes were injected with the same volume of 5% dextrose as control. Two animals, 3 eyes with drug and 1 eye with 5% dextrose, were used at each time point. The time points used were post-injections on day 1, day 3, week 1, week 2, week 3, week 5, week 8, and week 10. After animal sacrifice, globes were enucleated and kept on ice before freezing and dissecting. The globes were then submerged in −40 C.° 2-methylbutane in a beaker sitting in a dry ice ethanol bath for 30 seconds. The frozen globe was cut into two halves through the optic nerve and further dissected under a surgical microscope to separate the vitreous and retina. These different tissues from the same eyes were separately stored in the pre-weighed and pre-labeled glass vials. The vials were kept in −70 C for HPLC analysis. 3. […] When retinitis developed and reached grade 1 (earliest detected retinitis grade: 1 or 2), 5 infected eyes received 100 micrograms of HDP-cCDV in 0.1 mL 5% dextrose, 4 infected eyes received an equivalent dose of free CDV, and the other 5 infected eyes received 5% dextrose. […]"}, "[8]": {"assay": "Intravitreal toxicity of HDP-cCDV", "format": "in vivo, rabbit", "protocol": "All procedures were adherent to the ARVO Statement for the Use of Animals in Ophthalmic and Vision Research Intravitreal pharmacokinetics of small particle formulation of HDP-P-GCV: Three rabbits received 8.85 μmoles of the drug in their right eyes and 2.8 μmoles in the left eye. 2.8 μmole was previously determined to be non toxic.^2 Vitreous sampling was performed on both eyes of each rabbit at post injection week 1, week 2, week 3, week 5, week 8, week 12, and week 15. 50 to 100 μl of vitreous fluid was aspirated and placed in a pre-weighed vial for HPLC analysis of HDP-P-GCV levels as described before. 2. Intravitreal toxicity and pharmacokinetics of HDP-cCDV: For toxicity studies, five doses (10 μg or 0.018 μmole, 55 μg or 0.1 μmole, 100 μg or 0.18 μmole, 550 μg or 1.01 μmole, 1000 μg or 1.84 μmole in 50 μl of 5% dextrose) were tested in 8 rabbits, 16 eyes for 8 weeks. One eye of each animal was injected with drug and the fellow eye was injected with 5% dextrose as the control. Before drug injection, baseline IOP and fundus examination were documented. Drug or 5% dextrose was intravitreally injected into vitreous cavity as previously described.^2 After injection, eyes were monitored with a hand held tonometer (Tonopen, Medtronic, Jacksonville, Fla.), slit-lamp, and indirect ophthalmoscope at day 3, week 1, week 2, week 3, week 5, and week 8. […]"}, "[9]": {"assay": "Laser light scattering particle size analysis", "format": "physicochemical", "conditions": "dry powder, laser diffraction", "protocol": "Unmodified HDP-P-GCV and microfluidized HDP-P-GCV were subjected to laser light scattering particle size analysis at Cirrus Pharmaceuticals, Inc., Durham, N.C. Measurements were performed using a HELOS laser diffraction instrument (Sympatec, Lawrenceville, N.J.), equipped with a R3 lens (0.5 to 175 microns).\nFor each measurement, approximately 100 mg of dry sample was dispersed at a feed rate of 75% using the VIBRI and RODOS attachments set at a main pressure of 4.0 bar and aventury pressure of 100 mbar. The triggering conditions were set to start measurement when channel 25 e 1% and stop when channel 25 d 0.5%. Data were analyzed using the Fraunhoffer method by mean of the WINDOX 3.2 release 4 software. HDP-cCDV: cCDV was prepared from CDV as described previously^3 except that the compound was isolated as the dicyclohexyl-morpholinocarboxamidine salt. The scheme of the synthesis is illustrated in FIG. 1. The purity (greater than 98%) of these compounds used in this study was confirmed by thin layer chromatography, nuclear magnetic resonance spectroscopy, and mass spectroscopy as reported previously.^4,5\nAn aqueous slurry of HDP-P-GCV was subjected to five consecutive cycles of microfluidization. […] Finally, an untreated formulation of HDP-cCDV powder (Panel C) was also analyzed."}, "[10]": {"conditions": "47-day pretreatment, day 7 after virus inoculation"}, "[11]": {"conditions": "68-day pretreatment, day 14 following virus inoculation"}}, "note": "“And” between values parts separate entries of the source, which are not always exact repeats. Equal values may be shown once. “Also recorded” adds a separate entry of the source."}
{"smiles": "Nc1ccn(C[C@@H](CO)OCP(=O)(O)O)c(=O)n1", "note": "[CDV, cidofovir, reference compound]", "values": [{"measurement": "vitreous half-life", "setting": "[1]", "result": 20, "unit": "h"}, {"measurement": "rabbits that developed retinitis", "setting": "HSV-1 [2]", "result": "none"}, {"measurement": "median retinitis grade", "setting": "HSV-1 [2]; [10]", "result": 3}, {"measurement": "rabbits that developed retinitis (out of 5)", "setting": "HSV-1 [2]; [10]", "result": "all developed retinitis"}, {"measurement": "retinitis grade", "setting": "HSV-1 [2]; [11]", "result": 4}, {"measurement": "vitreous cloudiness", "setting": "HSV-1 [3]", "result": "noticeably less severe than the control eyes"}, {"measurement": "thickness of the retina (histology)", "setting": "HSV-1 [3]", "result": 95, "unit": "μm"}]}
{"smiles": "Nc1nc(O)c2ncn(COC(CO)CO)c2n1", "note": "[GCV, ganciclovir, reference compound]", "values": [{"measurement": "duration of prevention of HSV-1 viral infection of retina", "setting": "HSV-1 [4]", "result": "less than one-week protection"}]}
{"smiles": "CCCCCCCCCCCCCCCCOCCCOP(=O)(O)OCC1OC(n2cnc3c(=O)[nH]c(N)nc32)C(O)C1O", "note": "(stereo not shown) [HDP-P-Ara G, 1-O-hexadecyloxypropyl-phospho-arabinofuranosylguanosine]", "values": [{"measurement": "pathology study", "setting": "[5]; 25 μg intravitreal injections", "result": "no toxicity"}, {"measurement": "pathology study", "setting": "[5]; 125 μg intravitreal injections", "result": "localized retinal structural disturbance and proliferation or hypertrophy of retinal pigment epithelium"}, {"measurement": "ERGs", "setting": "[5]; all eyes including the ones with local retinal toxicity", "result": "normal"}, {"measurement": "clinical toxicity observation", "setting": "[5]; high dose (125 μg/eye), where drug depot touched the retina", "result": "local retinal toxicity that presented as a local retinal disturbance of fundus pigmentation; also recorded: local retinal depigmentation area"}, {"measurement": "time drug depot was observable", "setting": "[5]; low dose (25 μg/eye)", "result": 2, "unit": "weeks"}, {"measurement": "retinal toxicity in the rat eyes", "setting": "laser induced rat CNV; 3 μg intravitreal", "result": "did not cause any retinal toxicity"}, {"measurement": "reduction of CNV formation (leaking laser burns)", "setting": "laser induced rat CNV; 3 μg intravitreal 3 days before laser, versus control eyes", "result": 39, "unit": "%"}, {"measurement": "burns actively leaking in treated eyes", "setting": "laser induced rat CNV; 3 μg intravitreal 3 days before laser, control eyes 66%, p=0.009", "result": "40% and 39%"}]}
{"smiles": "CCCCCCCCCCCCCCCCOCCCOP(=O)(O)OCC(CO)OCn1cnc2c(=O)[nH]c(N)nc21", "note": "(stereo not shown) [HDP-P-GCV, Hexadecylpropanediol-3-phospho-ganciclovir]", "values": [{"measurement": "non toxic intravitreal dose", "setting": "[6]", "result": 2.8, "unit": "µmol"}, {"measurement": "duration of prevention of HSV-1 viral infection of retina", "setting": "HSV-1 [4]", "result": 20, "unit": "weeks"}]}
{"smiles": "CCCCCCCCCCCCCCCCOCCCOP1(=O)COC(Cn2ccc(N)nc2=O)CO1", "note": "(stereo not shown) [HDP-cCDV, 1-O-hexadecyloxypropyl-cyclic-cidofovir]", "values": [{"measurement": "estimated vitreous half-life", "setting": "[7]", "result": 151, "unit": "h"}, {"measurement": "rabbits that developed retinitis", "setting": "HSV-1 [2]", "result": "none"}, {"measurement": "rabbits that developed retinitis (out of 5)", "setting": "HSV-1 [2]; [10]", "result": 2}, {"measurement": "retinitis grade of the rabbits that developed retinitis", "setting": "HSV-1 [2]; [10]", "result": 2}, {"measurement": "retinitis outcome", "setting": "HSV-1 [2]; [11]", "result": "only two rabbits developed grade 3 and grade 4 retinitis, the other three rabbits had complete protection"}, {"measurement": "retinitis outcome", "setting": "HSV-1 [2]; 100-day pretreatment, three rabbits, day 9", "result": "one did not develop retinitis, and the other two had grade 3 retinitis"}, {"measurement": "duration of pharmacologic effect against HSV-1 infection of the rabbit retina", "setting": "HSV-1 [2]; single intravitreal pretreatment 100 μg/eye", "result": "at least 100 days"}, {"measurement": "toxicity findings", "setting": "[8]; 550 μg/eye and 1000 μg doses, one eye each", "result": "local cataract and mild iritis in two eyes"}, {"measurement": "highest non-toxic dose", "setting": "[8]; intravitreal injection, 8 weeks observation", "result": 100, "unit": "μg/eye"}, {"measurement": "vitreous cloudiness", "setting": "HSV-1 [3]", "result": "noticeably less severe than the control eyes"}, {"measurement": "thickness of the retina (histology)", "setting": "HSV-1 [3]", "result": 80, "unit": "μm"}, {"measurement": "volume median diameter (×50)", "setting": "[9]", "result": 8.9, "unit": "microns"}]}
{"smiles": "Nc1ccn(C[C@H]2COP(=O)(O)CO2)c(=O)n1", "note": "[cCDV, cyclic cidofovir]", "values": [{"measurement": "vitreous half-life", "setting": "[1]", "result": 10, "unit": "h"}]}
